One block for each compound: values may come before it.
How the values were obtained:
PC3 cells = assay: MTT growth inhibition assay, PC3; format: cell-based, human; settings: PC3, androgen-independent prostate adenocarcinoma
Procedure: (§1) The LNCaP (androgen-sensitive), PC3 (androgen in-dependent), human prostate cancer and normal human fibroblast 3T3 were obtained from American Type Culture Collection (Manassas, Va.) were maintained with RPMI 1640 medium containing 10% FBS and […] each of penicillin and streptomycin at […] in a humidified atmosphere with 5% CO2.
(§2) The viability of the cells after treated with various chemicals was evaluated using MTT assay preformed in triplicate (Mosmann T. 1983. Rapid colorimetric assay for cellular growth and survival: application to proliferation and cytotoxicity assays”. Journal of immunological methods. 65 (1-2): 55-63). Briefly, the cancer cells (5×10^3) were incubated in 96-well plates containing […] of the culture medium. Cells were permitted to adhere for 12-18 h then washed with phosphate buffered saline (PBS). Solutions were always prepared fresh by dissolving 0.2% DMSO or K8 in culture medium and added to various kind of tumor. After 48 h of exposure, K8 containing medium was removed, washed with PBS and replaced by fresh medium. The cells in each well were then incubated in culture medium with […] MTT for 4 h. After the medium were removed, […] of DMSO and […] of glycine buffer (0.1 M glycine, 0.1 M NaCl, pH 10.5) were added to each well. Absorbance at 570 nm of the maximum was detected by a PowerWave X Microplate ELISA Reader (Bio-TeK Instruments, Winoski, Vt.). The absorbance for DMSO treated cells was considered as 100%. The results were determined by three independent experiments.
Cytotoxicities of Z-K8 (Isochaihulactone) on LNCaP (AR-dependent), and PC3 (AR-independent) tumor cell line were examined in the manner described above. […]

[1] = tested on: lung cancer cell line A549; assay: MTT growth inhibition assay, A549; format: cell-based, human; settings: A549, lung adenocarcinoma
Procedure: (§3) The results were determined by three independent experiments.
(§4) Besides, the above assay was also conducted on gastric cancer cell line NCI-N87, liver cancer cell line HepG2 and J5, lung cancer cell line A549, and oral cancer cell line OECM-1.

LNCaP xenografts = assay: Antitumor activity in vivo, LNCaP xenograft; design: species or system mice; settings: for Tumor growth volume (mm^3): 30 mg/kg s.c. days 0-4
Procedure: Xenograft mice as a model system to study cytotoxicity effect of isochaihulactone in vivo: the implantation of cancer cells (LNCaP) were carried out similarly to previous reports. Female congenital athymic BALB/c nude (nu/nu) mice were purchased from National Sciences Council (Taipei, Taiwan) and all procedures were performed in compliance with the standard operating procedures of the Laboratory Animal Center of China Medical University (Taichung, Taiwan). All experiments were carried out using 6-8-week old mice weighing 18-22 g. The animals were s.c. implanted with 1×10^7 cell sinto the back of mice. When the tumor reached 80-120 mm3 in volume, animals were divided randomly into control and test groups consisting of six mice per group (day 0). Daily s.c. administration of z-K8, dissolved in a vehicle of 20% Tween 80 in normal saline (v/v) was performed from days 0 to 4 far from the inoculated tumor sites (>1.5 cm). The control group was treated with vehicle only. The mice were weighed three times a week up to days 21-28 to monitor the effects and the same time the tumor volume was determined by measurement of the length (L) and width (W) of the tumor. The tumor volume at day n (TVn) was calculated as TV (mm3)=(L×W^2)/2. The relative tumor volume at day n (RTVn) versus day 0 was expressed according to the following formula: RTVn=TVn/TV0. Tumor regression (T/C(%)) in treated versus control mice was calculated using: T/C(%)=(mean RTV of treated group)/(mean RTV of control group)×100. Xenograft tumors as well as other vital organs of treated and control. The results are shown in Tables 6 and 7 and FIGS. 6 and 7.
(§5) Assays were carried out to examine the inhibition of human xenografts growth in vivo by isochaihulactone. Briefly, LNCaP tumor-bearing mice were administered s.c. with vehicle control, 30 mg/kg E-K8, and Z-K8 respectively on days 0-4 for 5 days. The volumes of the tumors were measured. […] Scale bars, […]. Data represent means W S.D. of tumor volume at each time
as §5, with “Z-K8. Again,” for “isochaihulactone. Briefly,”, “Z-K8 15” for “30”, “mg/kg” for “mg/kg E-K8, and Z-K8 respectively”, “time point.” for “time”

[2] = tested on: oral cancer cell line OECM-1; assay: MTT growth inhibition assay, OECM-1; format: cell-based; settings: OECM-1, oral squamous cell carcinoma
Procedure: as §3, §4

LNCaP cells [3] = assay: MTT growth inhibition assay, LNCaP; settings: for IC50: LNCaP, androgen-dependent prostate adenocarcinoma
Procedure: as §1, §2
Cytotoxicity of K8 (Isochaihulactone) on LNCaP cells was examined in the manner described above. The cells were treated with KS (Isochaihulactone), its Z-form, or its E-form of different concentrations ranging from 2.5 to 20 μM for 24 h.
Cytotoxicities of Z-K8 (Isochaihulactone) on LNCaP (AR-dependent), and PC3 (AR-independent) tumor cell line were examined in the manner described above. The cells were treated with the Z- or E-form K8 (Isochaihulactone) of different concentrations ranging from 0.3125 to 5 μM for 24 h.

[4] = tested on: liver cancer cell line J5; assay: MTT growth inhibition assay, J5; format: cell-based; settings: J5, hepatocarcinoma
Procedure: as §3, §4

[5] = tested on: liver cancer cell line HepG2; assay: MTT growth inhibition assay, HepG2; format: cell-based; settings: HepG2, hepatocarcinoma
Procedure: as §3, §4

LNCaP cells [6] = assay: Cell cycle analysis by flow cytometry; format: cell-based, human; settings: 20 nM
Procedure: The cell cycle was determined by flow cytometry with DNA staining to reveal the total amount of DNA. Approximately 5×10^5 of cells were incubated in various concentration of isochaihulactone for the indicated time. Cells were harvested by treating the cells with trypsin/EDTA. The cells were collected, washed with PBS, fixed with cold 70% ethanol overnight, and then stained with a solution containing […] PI, 10 mg/ml RNase A, and 0.1% Triton X-100 for 1 h in the dark. The cells will then pass through FACScan flow cytometer (equipped with a 488-nmargon laser) to measure the DNA content. The data was obtained and analyzed with CellQuest 3.0.1 (Becton Dickinson, Franklin Lakes, N.J.) and ModFitLT V2.0 software. The results are shown Table 4 and FIG. 4.
Assays were carried out to examine the effect of Z-K8 in inducing G2/M phase arrest and apoptosis in LNCaP cells. Briefly, the cells were treated with different concentrations of Z-K8 (ranging from 0.25 to 2 μM) for 24 h. The cell cycle analysis was done according to the method described above. As shown in FIG. 4 and Table 4, Z-K8 induced cell cycle G2/M arrest in LNCaP cells.

- IC50 (PC3 cells): > 20 µM
- IC50 [1]: > 100 µM
- IC50 [2]: > 1 µM
- IC50 (LNCaP cells [3]): > 20 µM
Compound: COc1cc(/C=C2/C(=O)OCC2Cc2ccc3c(c2)OCO3)cc(OC)c1OC (racemic) [E-K8]
- Tumor growth volume (mm^3) (LNCaP xenografts; day 1 after administration): 0 mm^3
- Tumor growth volume (mm^3) (LNCaP xenografts; day 4 after administration): 118.0 mm^3
- Tumor growth volume (mm^3) (LNCaP xenografts; day 7 after administration): 137.1 mm^3
- Tumor growth volume (mm^3) (LNCaP xenografts; day 10 after administration): 205.7 mm^3
- Tumor growth volume (mm^3) (LNCaP xenografts; day 13 after administration): 313.7 mm^3
- Tumor growth volume (mm^3) (LNCaP xenografts; day 16 after administration): 427.4 mm^3
- Tumor growth volume (mm^3) (LNCaP xenografts; day 19 after administration): 504.7 mm^3
- Tumor growth volume (mm^3) (LNCaP xenografts; day 22 after administration): 633.5 mm^3
- Tumor growth volume (mm^3) (LNCaP xenografts; day 25 after administration): 658.6 mm^3
- Tumor growth volume (mm^3) (LNCaP xenografts; day 28 after administration): 834.9 mm^3
- Tumor growth volume (mm^3) (LNCaP xenografts; day 31 after administration): 894.9 mm^3
- tumor growth inhibition, in words (LNCaP xenografts; LNCaP tumor-bearing mice, 30 mg/kg s.c. days 0-4 (FIG. 6)): tumor growth inhibition effect
- Viability (%) (LNCaP cells [3]; 2.5 µM): 86.2%
- Viability (%) (LNCaP cells [3]; 5 µM): 72.9%
- Viability (%) (LNCaP cells [3]; 10 µM): 69.8%
- Viability (%) (LNCaP cells [3]; 20 µM): 65.3%

- IC50 [4]: 21.5 µM
- IC50 (PC3 cells): > 100 µM
- IC50 [5]: > 20 µM
- IC50 [1]: 18.5 µM
- IC50 (LNCaP cells [3]): 4.3 µM
Compound: COc1cc(/C=C2\C(=O)OC[C@@H]2Cc2ccc3c(c2)OCO3)cc(OC)c1OC [K8, isochaihulactone]
- Viability (%) (LNCaP cells [3]; 2.5 µM): 67.4%
- Viability (%) (LNCaP cells [3]; 5 µM): 43.6%
- Viability (%) (LNCaP cells [3]; 10 µM): 40.9%
- Viability (%) (LNCaP cells [3]; 20 µM): 21.0%

Compound: CC(=O)O[C@H]1C(=O)[C@@]2(C)[C@H]([C@H](OC(=O)c3ccccc3)[C@]3(O)C[C@H](OC(=O)[C@H](O)[C@@H](NC(=O)c4ccccc4)c4ccccc4)C(C)=C1C3(C)C)[C@]1(OC(C)=O)CO[C@@H]1C[C@@H]2O [toxal, reference compound]
- Cells in phase (%) G0/G1 (LNCaP cells [6]): 16.40%
- Cells in phase (%) G2/M (LNCaP cells [6]): 40.23%
- Cells in phase (%) S (LNCaP cells [6]): 3.95%
- Cells in phase (%) Sub-G1 (LNCaP cells [6]): 11.43%
